# Legend:
# [1] = target: T1, JAK1(h) (Homo sapiens, UniProt P23458); test: In vitro activity test of JAK1 kinase ([γ-33P]-ATP filter assay, Eurofins); assay type: biochemical
# T1 construct: purchased Eurofins (UK)
# Experimental: (§1) Recombinant human JAK1, JAK2, JAK3, and Tyk2 proteases, along with major instruments and reagents, were provided by Eurofins in the UK.
# (§2) JAK2, JAK3, and TYK2 were diluted with: 20 mM 3-(N-morpholino)propanesulfonic acid (MOPS), 1 mM EDTA, 0.01% Brij-35.5% glycerol, 0.1% β-mercaptoethanol, 1 mg/mL BSA; JAK1 was diluted with: 20 mM TRIS, 0.2 mM EDTA, 0.1% β-mercaptoethanol, 0.01% Brij-35.5% glycerol. The compound of formula (I) was prepared as a 100% DMSO solution and diluted to 50 times the final assay concentration. The test compound was subjected to a 3-fold serial dilution, with final concentrations ranging from 10 µM to 0.001 µM across 9 concentrations, and the DMSO content in the detection reaction was 2%. The working stock solution of this compound was added as the first component of the reaction to the assay wells, followed by the addition of the remaining components according to the protocol detailed below.
# JAK1(h) was incubated with 20 mM Tris/HCl pH 7.5, 0.2 mM EDTA, 500 µM MGEEPLYWSFPAKKK, 10 mM magnesium acetate, and [γ-^33P]-ATP (activity and concentration adjusted as needed). The reaction was initiated by adding the Mg/ATP mixture and incubated at room temperature for 40 minutes, then terminated by adding 0.5% phosphoric acid. […]
# (§3) The IC50 results were analyzed using XLFIT5 (205 formula) from IDBS, as detailed in Table 12. […]
# [2] = target: T2, JAK2(h) (Homo sapiens, UniProt O60674); test: In vitro activity test of JAK2 kinase ([γ-33P]-ATP filter assay, Eurofins); assay type: biochemical
# T2 construct: purchased Eurofins (UK)
# T2 sequence (O60674 whole entry): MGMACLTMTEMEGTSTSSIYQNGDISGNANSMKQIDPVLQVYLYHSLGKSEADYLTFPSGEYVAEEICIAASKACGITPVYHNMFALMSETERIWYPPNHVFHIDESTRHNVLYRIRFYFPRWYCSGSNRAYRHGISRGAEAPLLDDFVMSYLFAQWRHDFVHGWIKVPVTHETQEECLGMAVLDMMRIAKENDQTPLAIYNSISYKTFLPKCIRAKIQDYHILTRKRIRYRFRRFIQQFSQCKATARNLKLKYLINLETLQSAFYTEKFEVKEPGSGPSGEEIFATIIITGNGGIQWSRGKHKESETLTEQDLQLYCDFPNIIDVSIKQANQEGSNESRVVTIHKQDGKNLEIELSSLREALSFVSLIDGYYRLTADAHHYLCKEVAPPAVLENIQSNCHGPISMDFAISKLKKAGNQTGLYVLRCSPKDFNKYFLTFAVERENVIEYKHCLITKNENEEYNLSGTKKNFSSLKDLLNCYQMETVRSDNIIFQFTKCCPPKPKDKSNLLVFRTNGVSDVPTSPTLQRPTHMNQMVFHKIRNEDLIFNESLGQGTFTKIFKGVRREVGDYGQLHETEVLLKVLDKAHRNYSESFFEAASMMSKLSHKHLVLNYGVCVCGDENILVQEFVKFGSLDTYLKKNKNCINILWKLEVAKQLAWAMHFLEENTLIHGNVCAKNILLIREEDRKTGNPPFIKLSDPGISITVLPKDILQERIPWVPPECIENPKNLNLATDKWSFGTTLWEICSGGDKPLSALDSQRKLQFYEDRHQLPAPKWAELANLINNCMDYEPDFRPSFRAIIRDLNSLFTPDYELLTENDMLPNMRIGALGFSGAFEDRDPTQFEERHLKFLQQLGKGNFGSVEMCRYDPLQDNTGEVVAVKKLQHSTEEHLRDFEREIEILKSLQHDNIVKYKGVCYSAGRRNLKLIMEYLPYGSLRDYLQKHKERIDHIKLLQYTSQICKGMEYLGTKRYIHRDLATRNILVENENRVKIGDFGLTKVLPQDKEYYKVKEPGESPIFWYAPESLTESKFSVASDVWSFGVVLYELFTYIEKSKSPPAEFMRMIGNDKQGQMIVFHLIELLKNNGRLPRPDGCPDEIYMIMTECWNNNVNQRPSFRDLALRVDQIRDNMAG
# Experimental: as §1, §2
# JAK2(h) was incubated with 8 mM MOPS pH 7.0, 0.2 mM EDTA, 100 µM […], 10 mM magnesium acetate, and [γ-^33P]-ATP (prepared to the required activity and concentration). The reaction was initiated by adding the Mg/ATP mixture and incubated at room temperature for 40 minutes, then terminated by adding 0.5% phosphoric acid. […]
# as §3
# [3] = test system: paw swelling; test: Paw swelling and scores in mice after oral administration (only summarised, no method given); assay type: in vivo
# [4] = target: T3, TYK2(h) (Homo sapiens, UniProt P29597); test: In vitro activity test of TYK2 kinase ([γ-33P]-ATP filter assay, Eurofins); assay type: biochemical
# T3 construct: purchased Eurofins (UK)
# T3 sequence (P29597 whole entry): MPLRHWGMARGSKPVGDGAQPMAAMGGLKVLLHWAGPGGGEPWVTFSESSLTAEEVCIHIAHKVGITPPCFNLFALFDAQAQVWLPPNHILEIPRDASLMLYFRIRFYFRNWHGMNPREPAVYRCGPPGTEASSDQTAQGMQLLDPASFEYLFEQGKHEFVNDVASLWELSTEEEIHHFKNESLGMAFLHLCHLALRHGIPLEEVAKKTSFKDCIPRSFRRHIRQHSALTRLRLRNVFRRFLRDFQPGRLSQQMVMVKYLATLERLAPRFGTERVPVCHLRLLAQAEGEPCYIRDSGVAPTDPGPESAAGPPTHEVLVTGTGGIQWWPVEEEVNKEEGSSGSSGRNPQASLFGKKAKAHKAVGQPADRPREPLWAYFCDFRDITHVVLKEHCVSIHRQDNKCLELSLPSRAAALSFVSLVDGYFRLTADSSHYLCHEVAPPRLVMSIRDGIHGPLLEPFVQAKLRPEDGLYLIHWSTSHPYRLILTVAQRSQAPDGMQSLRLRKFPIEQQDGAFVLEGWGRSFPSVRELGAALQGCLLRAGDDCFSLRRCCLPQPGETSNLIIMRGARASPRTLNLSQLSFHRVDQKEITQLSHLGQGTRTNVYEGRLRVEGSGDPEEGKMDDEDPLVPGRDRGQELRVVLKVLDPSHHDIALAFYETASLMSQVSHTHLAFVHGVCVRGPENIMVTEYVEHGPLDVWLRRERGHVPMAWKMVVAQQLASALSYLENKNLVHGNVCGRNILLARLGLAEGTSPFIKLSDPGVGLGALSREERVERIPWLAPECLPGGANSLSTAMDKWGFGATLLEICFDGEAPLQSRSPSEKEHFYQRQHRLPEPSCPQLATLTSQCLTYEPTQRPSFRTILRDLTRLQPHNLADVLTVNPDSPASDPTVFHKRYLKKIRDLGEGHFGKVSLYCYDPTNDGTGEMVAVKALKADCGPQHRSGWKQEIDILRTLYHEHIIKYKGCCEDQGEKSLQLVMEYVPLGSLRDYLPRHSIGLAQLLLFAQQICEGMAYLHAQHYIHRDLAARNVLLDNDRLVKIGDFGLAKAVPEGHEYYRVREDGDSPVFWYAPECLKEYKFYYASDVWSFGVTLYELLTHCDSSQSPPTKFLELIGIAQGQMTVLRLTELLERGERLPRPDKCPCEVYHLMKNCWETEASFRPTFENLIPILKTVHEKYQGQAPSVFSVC
# Experimental: as §2, with “Recombinant human JAK1, JAK2, JAK3, and Tyk2 proteases, along with major instruments and reagents, were provided by Eurofins in the UK. JAK2,” for “JAK2,”, “below. TYK2(h) was incubated with 8 mM MOPS pH 7.0, 0.2 mM EDTA, 250 µM GGMEDIYFEFMGGKKK, 10 mM magnesium acetate, and [γ-^33P]-ATP (activity and concentration adjusted as needed). The reaction was initiated by adding the Mg/ATP mixture and incubated at room temperature for 40 minutes, then terminated by adding 0.5% phosphoric acid. […] The IC50 results were analyzed using XLFIT5 (205 formula) from IDBS, as detailed in Table 12. […]” for “below.”
# T1 sequence (P23458 whole entry): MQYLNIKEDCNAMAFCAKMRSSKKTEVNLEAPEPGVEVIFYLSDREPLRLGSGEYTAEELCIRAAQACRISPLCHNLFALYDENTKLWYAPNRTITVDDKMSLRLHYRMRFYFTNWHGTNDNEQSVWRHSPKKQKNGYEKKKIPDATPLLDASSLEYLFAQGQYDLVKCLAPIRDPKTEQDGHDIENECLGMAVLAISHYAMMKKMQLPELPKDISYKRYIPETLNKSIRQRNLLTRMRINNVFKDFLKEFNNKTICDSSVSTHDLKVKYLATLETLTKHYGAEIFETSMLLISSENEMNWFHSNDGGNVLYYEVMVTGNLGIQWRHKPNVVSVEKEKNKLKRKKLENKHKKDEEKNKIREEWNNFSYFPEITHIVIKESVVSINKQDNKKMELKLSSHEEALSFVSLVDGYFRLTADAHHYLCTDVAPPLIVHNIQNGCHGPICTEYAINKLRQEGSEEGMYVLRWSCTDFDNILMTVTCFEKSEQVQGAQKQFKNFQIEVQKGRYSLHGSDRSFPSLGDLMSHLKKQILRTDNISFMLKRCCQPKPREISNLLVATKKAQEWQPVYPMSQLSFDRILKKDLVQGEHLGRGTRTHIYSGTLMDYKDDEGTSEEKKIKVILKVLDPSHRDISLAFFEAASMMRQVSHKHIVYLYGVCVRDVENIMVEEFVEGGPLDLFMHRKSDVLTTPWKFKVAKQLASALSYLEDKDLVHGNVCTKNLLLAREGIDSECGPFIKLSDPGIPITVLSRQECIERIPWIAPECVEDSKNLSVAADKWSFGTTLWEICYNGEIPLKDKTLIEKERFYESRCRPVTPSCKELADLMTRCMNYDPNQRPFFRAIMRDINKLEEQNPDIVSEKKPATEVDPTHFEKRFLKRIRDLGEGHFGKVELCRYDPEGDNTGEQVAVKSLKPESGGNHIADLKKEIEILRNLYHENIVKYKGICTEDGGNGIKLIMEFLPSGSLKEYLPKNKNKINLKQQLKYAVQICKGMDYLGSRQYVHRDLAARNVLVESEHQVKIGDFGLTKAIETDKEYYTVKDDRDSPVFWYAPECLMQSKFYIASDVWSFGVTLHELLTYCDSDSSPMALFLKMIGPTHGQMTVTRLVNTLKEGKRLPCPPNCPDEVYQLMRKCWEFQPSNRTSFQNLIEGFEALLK
structure (smiles),measurement,setting,value
Cn1cc(-c2cn3nccc3c(-c3cnn([C@]4(CC#N)CC5(C[C@H](C#N)C5)C4)c3)n2)cn1 (stereo partly shown) [Compound of formula (I)],IC50,[1],10 nM
same,IC50,[2],4 nM
same,degree of paw swelling (in words),[3],significantly improve
same,effect on animal body weight (in words),[3],no significant effect
same,scores and relative scores (in words),[3],ameliorate
same,IC50,[4],0.9 nM
same,selective inhibition against TYK2 and/or JAK1 and/or JAK2,"[4]; in vitro activity tests for the four kinase subtypes JAK1, JAK2, JAK3, and TYK2",good selective inhibition

# Source: patent publication EP4711367A1, “PYRAZOLOPYRAZINE COMPOUND AND METHOD FOR PREPARING CRYSTAL FORM THEREOF” (CMS Research & Development Pte. Ltd., priority 2023, dated 2024)
